# Columns and labels:
# [1] = tested on: EAE induced in SJL mice by PLP139-151/CFA immunization; test: EAE in SJL mice: histological and immunohistological analyses; format: in vivo, mouse
# Procedure: (§1) The effect of administration of two dosages of ACTH and β-endorphin on severity and relapse in EAE was evaluated. EAE was induced in SJL mice by PLP139-151/CFA immunization on Day 0. Treatment was late therapeutic, starting on Day 20 after immunization for each mouse. Mice were observed through the end of the study, Day 42 after immunization. Four groups of 20 mice each received one of the following treatments: vehicle (a negative control); 10 mg/kg oral prednisolone daily (reference treatment); 32 μg ACTH+16 μg endorphin by subcutaneous injection, every 2nd day (low dose); or 64 μg ACTH+32 μg β-endorphin by subcutaneous injection, every 2nd day (high dose).
# Treatment started on the day of group assignment (Day 20 after immunization). This was the time of the expected end of the first wave of EAE and before relapses were expected to begin. Treatment continued through Day 41. EAE score was determined daily by a person unaware of both treatment and of previous scores for each mouse. Weight was measured 3 times a week. Five mice in each group were euthanized on day 30 and the fifteen remaining mice euthanized at the end of the study (Day 42). Histological and immunohistological analyses were performed on tissue collected from the euthanized mice.
# [2] = tested on: EAE induced in SJL mice by PLP139-151/CFA immunization; test: EAE in SJL mice, late therapeutic treatment: clinical findings; format: in vivo, mouse
# Procedure: as §1
# Mice were injected subcutaneously at four sites in the back with emulsion containing PLP139-151 (native sequence) from HOOKE KIT™ PLP139-151/CFA Emulsion, catalog number EK-0120 (Hooke Laboratories, Lawrence Mass.). Two sites of injection were in the upper back approximately 1 cm caudal of the neck line. The other two sites were in the lower back approximately 2 cm cranial of the base of the tail. The injection volume was 0.05 mL at each site. Even without treatment, most mice recover spontaneously after the first wave of disease. In the SJL model, EAE develops 10-15 days after immunization in 90-100% of immunized mice. The first wave of EAE lasts several days and most mice fully or almost fully recover from this first wave. After a disease-free period, which can last from one day to several months, most mice relapse. During the first 5-7 weeks after immunization, 50-100% of mice will develop a relapse. Each wave of paralysis results in body weight loss at onset, most of which is regained at recovery from the wave. The greatest weight loss is during the first wave of EAE. During the chronic phase of disease, the average EAE body weight is relatively stable, with normal slow increase with age. Since individual mice experience relapses at different times, only a few mice in each group are acutely sick at any given time after the first wave of EAE. Therefore, significant differences in relative body weight between groups are often not found after the first wave of disease in this model. In the vehicle treated group, disease developed as expected for this model. Five (5) mice were euthanized on Day 30 for analysis. Relapse occurred in 7 out of the 15 remaining mice, which were followed to Day 42, with typical course and severity of disease.
# 100 EAE induced mice were initially considered a single group and were scored daily starting on Day 9 after immunization. On Day 20, mice were assigned to the experimental groups in a balanced manner to achieve groups with similar times of EAE onset, similar maximum EAE score and similar scores at the time of enrollment into treatment (see Table 2). The remaining mice, which developed EAE last, or which developed unusual signs of EAE such as head tilting, were not assigned to any treatment group. […]
# Treatment started on the day of group assignment (Day 20 after immunization). […] EAE score was determined daily by a person unaware of both treatment and of previous scores for each mouse. Weight was measured 3 times a week. […]
# [3] = tested on: acute epileptic extensor spasms (AEES) in Ts65Dn mouse; conditions: GABABR agonist-treated Ts65Dn mouse; cited from earlier work
Compound,Demyelination (anti-MBP) ± SD ([1]; anti-myelin basic protein staining score 0-5),"GFAP ± SD (% of area) ([1]; gliosis, % of total spinal cord area)","lba1 ± SD (% of area) ([1]; microglial activation, % of total spinal cord area)","Demyelination, anti-myelin basic protein staining score versus vehicle (in words) ([1]; mouse, in vivo)","Gliosis (scarring), area of anti-GFAP staining versus vehicle (in words) ([1]; mouse, in vivo)","Inflammation and inflammatory infiltrates, number of inflammatory foci versus vehicle (in words) ([1]; mouse, in vivo)",Inflammatory foci/section ± SD ([1]; spinal cord histology of euthanized mice) [foci/section],"End score ± SD ([2]; EAE score (scale 0-5) at end of study, mice followed until Day 42)",Body weight change versus vehicle control (in words) ([2]; end of study),"MMS of relapse period ± SD (Days 25-42) ([2]; mean maximal EAE score (scale 0-5), mice followed until Day 42, all mice in the group)","Incidence of relapse ([2]; mice followed until Day 42, treatment Day 20-41, mice that relapsed as proportion of surviving mice that developed first wave of EAE) [%]","End % body weight ± SD ([2]; relative body weight at end of study, mice followed until Day 42)",Reduction of AEES [3]
"C[C@]12C=CC(=O)C=C1CC[C@@H]1[C@@H]2[C@@H](O)C[C@@]2(C)[C@H]1CC[C@]2(O)C(=O)CO [Prednisolone, prednisolone]",0.9 ± 0.6,13.3 ± 2.0 % of area,4.0 ± 1.2 % of area,only at best a trend to reduction,a higher level of gliosis,only at best a trend to reduction,3.8 ± 2.4,1.47 ± 1.04,statistically significant loss of weight versus the vehicle control,2.07 ± 1.10,33.3,88.6% ± 9.3%,
"Rodent ACTH: murine ACTH, SEQ ID NO: 9, SYSMEHFRWGKPVGKKRRPVKVYPNVAENESAEAFPLEF (listed as Mus musculus)",,,,,,,,,,,,,can significantly reduce AEES
